Reference: publication PMC12155096 (International Journal of Molecular Sciences, 2025)
Structures can show the parent of a compound that is named as a salt. Where two headings read alike, the source gives them in different places.

What was measured:
human CYP2C9 [1] = molecular target: T1, human CYP2C9 (Homo sapiens, UniProt P11712)
human CYP2C19 [2] = molecular target: T2, human CYP2C19 (Homo sapiens, UniProt P33261)
[3] = molecular target: Photinus pyralis (firefly) luciferase (Photinus pyralis, UniProt P08659); test: biochemical; assay type: biochemical
human CYP1A2 [4] = molecular target: T3, human CYP1A2 (Homo sapiens, UniProt P05177)
T3 sequence (P05177 1-516): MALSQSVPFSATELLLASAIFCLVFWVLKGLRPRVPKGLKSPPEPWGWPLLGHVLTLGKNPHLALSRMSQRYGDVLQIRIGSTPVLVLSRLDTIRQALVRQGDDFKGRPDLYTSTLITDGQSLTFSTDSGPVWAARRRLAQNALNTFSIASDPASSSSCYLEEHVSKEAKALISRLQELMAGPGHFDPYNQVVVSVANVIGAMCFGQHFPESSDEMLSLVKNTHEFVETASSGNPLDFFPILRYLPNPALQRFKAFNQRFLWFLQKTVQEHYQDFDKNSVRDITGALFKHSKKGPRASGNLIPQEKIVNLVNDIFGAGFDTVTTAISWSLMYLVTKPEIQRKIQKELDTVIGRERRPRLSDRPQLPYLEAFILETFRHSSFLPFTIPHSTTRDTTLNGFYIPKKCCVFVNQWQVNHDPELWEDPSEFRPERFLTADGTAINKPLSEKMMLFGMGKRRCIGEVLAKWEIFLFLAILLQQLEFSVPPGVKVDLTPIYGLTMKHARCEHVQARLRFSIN

human CYP2D6 = human CYP2D6 (Homo sapiens, UniProt P10635)
CYP3A4 = CYP3A4 (Homo sapiens, UniProt P08684)
human CYP1A2 [5] = molecular target: T3, human CYP1A2; test: biochemical
human CYP2C9 [6] = molecular target: T1, human CYP2C9; test: biochemical
human CYP2C19 [7] = molecular target: T2, human CYP2C19; test: biochemical
[8] = CYP1A2 IC50 (half-maximal inhibitory concentration)

Chain of human CYP2D6 (P10635 whole entry): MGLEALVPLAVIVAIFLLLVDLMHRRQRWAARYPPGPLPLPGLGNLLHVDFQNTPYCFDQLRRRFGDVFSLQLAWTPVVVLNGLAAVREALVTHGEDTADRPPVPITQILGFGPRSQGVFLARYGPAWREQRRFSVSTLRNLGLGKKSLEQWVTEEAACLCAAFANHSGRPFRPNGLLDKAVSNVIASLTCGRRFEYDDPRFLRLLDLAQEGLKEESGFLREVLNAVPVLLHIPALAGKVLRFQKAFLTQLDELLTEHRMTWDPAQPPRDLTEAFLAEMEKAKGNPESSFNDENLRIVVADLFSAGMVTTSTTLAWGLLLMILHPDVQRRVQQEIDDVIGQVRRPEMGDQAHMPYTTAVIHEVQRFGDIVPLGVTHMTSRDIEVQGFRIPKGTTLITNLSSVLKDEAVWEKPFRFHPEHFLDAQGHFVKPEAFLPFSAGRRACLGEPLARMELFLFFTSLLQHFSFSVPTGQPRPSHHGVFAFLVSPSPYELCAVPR
Chain of CYP3A4 (P08684 whole entry): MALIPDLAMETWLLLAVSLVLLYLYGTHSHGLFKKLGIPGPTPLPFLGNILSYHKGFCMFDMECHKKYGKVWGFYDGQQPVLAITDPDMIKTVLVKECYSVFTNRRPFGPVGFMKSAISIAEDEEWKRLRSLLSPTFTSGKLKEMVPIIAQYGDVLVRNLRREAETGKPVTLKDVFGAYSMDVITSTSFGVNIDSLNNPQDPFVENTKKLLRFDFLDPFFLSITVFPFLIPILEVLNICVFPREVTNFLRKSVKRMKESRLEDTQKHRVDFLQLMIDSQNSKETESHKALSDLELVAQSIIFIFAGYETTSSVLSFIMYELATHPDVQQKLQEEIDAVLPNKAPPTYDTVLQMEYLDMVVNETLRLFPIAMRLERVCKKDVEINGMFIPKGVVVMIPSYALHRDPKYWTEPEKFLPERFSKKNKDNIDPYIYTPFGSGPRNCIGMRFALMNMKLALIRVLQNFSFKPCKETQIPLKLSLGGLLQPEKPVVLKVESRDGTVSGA
Chain of Photinus pyralis (firefly) luciferase (P08659 whole entry): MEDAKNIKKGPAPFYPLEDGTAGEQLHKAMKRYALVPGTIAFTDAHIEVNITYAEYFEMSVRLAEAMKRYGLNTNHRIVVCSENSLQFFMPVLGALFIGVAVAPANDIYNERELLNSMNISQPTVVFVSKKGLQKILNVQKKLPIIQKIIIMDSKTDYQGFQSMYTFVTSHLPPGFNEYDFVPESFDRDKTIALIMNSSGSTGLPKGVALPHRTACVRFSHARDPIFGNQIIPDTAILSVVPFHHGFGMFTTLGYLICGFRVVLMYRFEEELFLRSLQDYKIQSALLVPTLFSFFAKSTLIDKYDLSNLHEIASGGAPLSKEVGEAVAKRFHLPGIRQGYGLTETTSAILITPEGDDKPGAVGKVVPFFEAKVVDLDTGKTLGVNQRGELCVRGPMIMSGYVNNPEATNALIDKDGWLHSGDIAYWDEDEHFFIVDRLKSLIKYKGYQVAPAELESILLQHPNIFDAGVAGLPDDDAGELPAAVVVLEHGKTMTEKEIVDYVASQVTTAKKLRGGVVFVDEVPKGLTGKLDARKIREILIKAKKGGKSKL
T1 sequence (P11712 whole entry): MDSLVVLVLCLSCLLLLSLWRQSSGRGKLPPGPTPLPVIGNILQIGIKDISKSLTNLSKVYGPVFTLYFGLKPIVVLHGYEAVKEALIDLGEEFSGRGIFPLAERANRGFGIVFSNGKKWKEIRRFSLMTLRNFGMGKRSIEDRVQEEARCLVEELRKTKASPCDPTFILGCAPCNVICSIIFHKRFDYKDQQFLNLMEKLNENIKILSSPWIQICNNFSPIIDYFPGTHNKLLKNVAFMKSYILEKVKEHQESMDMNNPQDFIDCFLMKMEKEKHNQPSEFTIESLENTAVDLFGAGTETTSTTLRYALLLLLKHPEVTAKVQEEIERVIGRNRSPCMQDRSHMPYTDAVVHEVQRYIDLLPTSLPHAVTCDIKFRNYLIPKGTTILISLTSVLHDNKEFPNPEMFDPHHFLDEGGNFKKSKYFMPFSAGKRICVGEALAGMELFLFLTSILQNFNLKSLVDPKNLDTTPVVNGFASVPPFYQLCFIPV
T2 sequence (P33261 whole entry): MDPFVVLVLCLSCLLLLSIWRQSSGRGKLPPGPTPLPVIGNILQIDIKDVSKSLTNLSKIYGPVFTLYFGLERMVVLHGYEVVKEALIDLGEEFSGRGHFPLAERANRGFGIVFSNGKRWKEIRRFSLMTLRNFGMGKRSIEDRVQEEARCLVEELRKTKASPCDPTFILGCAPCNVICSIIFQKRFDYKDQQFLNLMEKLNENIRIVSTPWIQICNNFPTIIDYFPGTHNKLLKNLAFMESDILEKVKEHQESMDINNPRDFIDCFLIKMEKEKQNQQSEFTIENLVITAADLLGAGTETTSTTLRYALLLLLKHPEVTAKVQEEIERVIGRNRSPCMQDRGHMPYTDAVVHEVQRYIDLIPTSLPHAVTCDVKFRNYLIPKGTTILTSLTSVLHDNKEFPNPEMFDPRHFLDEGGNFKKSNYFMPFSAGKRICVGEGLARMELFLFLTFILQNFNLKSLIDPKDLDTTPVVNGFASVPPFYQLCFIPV

Row | Compound | CYP2C9 IC50 (half-maximal inhibitory concentration) (human CYP2C9 [1]) | CYP2C19 IC50 (half-maximal inhibitory concentration) (human CYP2C19 [2]) | Luciferase IC50 (half-maximal inhibitory concentration) [3] | CYP2D6 IC50 (half-maximal inhibitory concentration) (human CYP2D6) | CYP3A4 IC50 (half-maximal inhibitory concentration) (CYP3A4) | Luciferase IC50 [3] | CYP2D6 IC50 (human CYP2D6) | CYP3A4 IC50 (CYP3A4) | IC50 (human CYP1A2 [5]; CYP1A2 IC50) | CYP2C19 IC50 (human CYP2C19 [2]) | IC50 (human CYP2C9 [1]) | IC50 (CYP3A4) | other results
1 | Nc1c(Br)cc(Br)c2c1C(=O)c1ccccc1C2=O [1-Amino-2,4-dibromoanthraquinone] | Inactive | Inactive | Inactive | Inactive | Inactive | – | – | – | – | – | – | – | CYP1A2 Efficacy (in parenthesis) (human CYP1A2 [4]; human): 0.14 ± 0.03 (-99 ± 12) %; IC50 (human CYP1A2 [5]; [8]): 0.14 µM
2 | O=C1c2ccccc2C(=O)c2cc(Cl)ccc21 [2-Chloroanthraquinone] | Inactive | Inactive | Inactive | Inactive | Inactive | – | – | – | – | – | – | – | IC50 (human CYP1A2 [5]): 0.11 ± 0.03 µM
3 | Brc1c2ccccc2c(Br)c2ccccc12 [9,10-Dibromoanthracene] | Inactive | Inactive | Inactive | Inactive | Inactive | – | – | – | – | – | – | – | CYP1A2 Efficacy (in parenthesis) (human CYP1A2 [4]; human): 0.41 ± 0.27 (-85 ± 6) %; IC50 (human CYP1A2 [5]; [8]): 0.41 µM
4 | N#Cc1c2ccccc2cc2ccccc12 [9-Cyanoanthracene] | – | – | – | – | – | Inactive | Inactive | Inactive | 0.22 µM | – | – | – | IC50 (human CYP2C9 [6]; CYP2C9 IC50): 6.16 µM; IC50 (human CYP2C19 [7]; CYP2C19 IC50): 16 µM
5 | O=C1c2ccccc2C(=O)c2ccccc21 [Anthraquinone] | Inactive | Inactive | Inactive | Inactive | Inactive | – | – | – | – | – | – | – | CYP1A2 Efficacy (in parenthesis) (human CYP1A2 [4]; human): 0.23 ± 0.06 (-96 ± 3) %; IC50 (human CYP1A2 [5]; [8]): 0.23 µM
6 | c1ccc2c(c1)cc1ccc3cccc4ccc2c1c34 [Benzo(a)pyrene] | – | – | – | – | – | – | Inactive | Inactive | 0.3 µM | Inactive | – | – | IC50 [3]: 16.4 µM; IC50 (human CYP2C9 [6]; CYP2C9 IC50): 23.4 µM
7 | c1cc2ccc3ccc4ccc5cccc6c(c1)c2c3c4c56 [Benzo(g,h,i)perylene] | – | – | – | – | – | Inactive | Inactive | Inactive | 0.16 µM | Inactive | – | – | CYP2C9 IC50 (human CYP2C9 [1]): Inactive
8 | c1ccc2cc3c(cc2c1)-c1cccc2cccc-3c12 [Benzo(k)fluoranthene] | – | – | – | – | – | Inactive | Inactive | Inactive | 0.17 µM | Inactive | – | – | CYP2C9 IC50 (human CYP2C9 [1]): Inactive
9 | CC(C)(Cc1c[nH]c2ccccc12)NCC(O)COc1ccccc1C#N (centres unmarked) [Bucindolol] | Inactive | Inactive | Inactive | – | Inactive | – | – | – | – | – | – | – | IC50 (human CYP1A2 [5]): 29.2 ± 2.38 µM
10 | c1ccc2c(c1)ccc1c3ccccc3ccc21 [Chrysene] | – | – | – | – | – | Inactive | Inactive | Inactive | 0.65 µM | Inactive | – | – | CYP2C9 IC50 (human CYP2C9 [1]): Inactive
11 | c1ccc2cc3c4ccccc4c4ccccc4c3cc2c1 [Dibenz[a,c]anthracene] | – | – | – | – | – | Inactive | Inactive | Inactive | 0.21 µM | Inactive | – | – | CYP2C9 IC50 (human CYP2C9 [1]): Inactive
12 | c1ccc2c(c1)-c1ccc3ccc4cccc5cc-2c1c3c45 [Indeno(1,2,3-cd)pyrene] | – | – | – | Inactive | Inactive | – | – | – | – | – | – | – | IC50 [3]: 12.9 µM; IC50 (human CYP2C9 [6]; CYP2C9 IC50 (half-maximal inhibitory concentration)): 5.5 µM; IC50 (human CYP2C19 [7]; CYP2C19 IC50 (half-maximal inhibitory concentration)): 15.5 µM; IC50 (human CYP1A2 [5]; [8]): 0.18 µM
13 | c1ccc2nc(N3CCNCC3)ccc2c1 [Quipazine maleate] | – | – | – | – | – | Inactive | Inactive | Inactive | 0.96 µM | Inactive | – | – | CYP2C9 IC50 (human CYP2C9 [1]): Inactive
14 | CC(=O)[O][Sn]([c]1ccccc1)([c]1ccccc1)[c]1ccccc1 [Triphenyltin acetate] | – | – | – | – | – | – | – | – | – | – | 1.36 µM | 8.45 µM | IC50 (human CYP2C19 [2]): 4.84 µM; IC50 ([3]; read-out: Luciferase IC50): 3.81 µM; IC50 (human CYP1A2 [4]): 47.5 µM; IC50 (human CYP2D6): 0.81 µM
15 | Cl.FC(F)(F)c1cccc(C2=CCN(CCc3ccc4ccccc4c3)CC2)c1 [Xaliproden hydrochloride] | 22.52 ± 6.28 (29 ± 5) µM | Inactive | Inactive | – | 19.77 ± 4.14 (120 ± 18) µM | – | – | – | – | – | – | – | CYP2C9 Efficacy (human CYP2C9 [1]): 22.52 ± 6.28 (29 ± 5) %; CYP1A2 Efficacy (human CYP1A2 [4]): 28.62 ± 14.29 (-37 ± 3) %; IC50 (human CYP1A2 [4]): 28.6 µM; CYP2D6 Efficacy (human CYP2D6): 0.28 ± 0.18 (-100 ± 3) %; IC50 (human CYP2D6): 0.28 µM; AC50 (CYP3A4): 19.8 µM
16 | C[C@H]1CCC[C@H](O)CCCCCc2cc(O)cc(O)c2C(=O)O1 [Zearalanol] | – | – | Inactive | – | – | – | – | – | – | – | 27.3 µM | 1 µM | IC50 (human CYP2C19 [2]): 19.5 µM; IC50 (human CYP1A2 [4]): 33.4 µM; IC50 (human CYP2D6): 57 µM
17 | Cimicifugoside | – | Inactive | Inactive | Inactive | – | – | – | – | – | – | 41.1 µM | 0.89 µM | CYP1A2 IC50 (half-maximal inhibitory concentration) (human CYP1A2 [4]): Inactive
18 | GW473178E methyl benzene sulphonic acid | – | – | Inactive | – | – | – | – | – | – | – | 5.86 µM | 0.8 µM | IC50 (human CYP2C19 [2]): 46.9 µM; CYP1A2 IC50 (half-maximal inhibitory concentration) (human CYP1A2 [4]): Inactive; IC50 (human CYP2D6): 23.1 µM
19 | Pentaerythritol allyl ether | – | – | Inactive | Inactive | – | – | – | – | – | – | 5.98 µM | 13 µM | IC50 (human CYP2C19 [2]): 0.83 µM; IC50 (human CYP1A2 [4]): 23.6 µM
20 | Trimethylolpropane ethoxylate triacrylate | – | – | Inactive | – | – | – | – | – | – | – | 22.4 µM | 0.9 µM | CYP2C9 Efficacy (in parenthesis) (human CYP2C9 [1]): 22.42 ± 6.63 (-90 ± 14) %; CYP2C19 Efficacy (in parenthesis) (human CYP2C19 [2]): 20.46 ± 7.7 (-131 ± 32) %; IC50 (human CYP2C19 [2]): 20.5 µM; CYP1A2 Efficacy (in parenthesis) (human CYP1A2 [4]): 54.51 ± 3.69 (-43 ± 8) %; IC50 (human CYP1A2 [4]): 54.5 µM; CYP2D6 Efficacy (in parenthesis) (human CYP2D6): 68.92 ± 8.79 (-43 ± 5) %; IC50 (human CYP2D6): 68.9 µM; CYP3A4 Efficacy (in parenthesis) (CYP3A4): 0.9 ± 0.43 (-82 ± 18) %
